Measurements taken from paper PMC4956498 (Planta medica, 2016).
Like-named read-outs stand apart in the source and are kept apart here.

Legend:
[1] = target: p65 subunit of NF-κB (Homo sapiens, UniProt Q04206); assay: cell-based; format: cell-based
[2] = tested on: quinone reductase; assay: Quinone reductase induction assay in Hepa 1c1c7 cells; format: cell-based, mouse; details: for CD, concentration required to double quinone reductase activity: 48 h
[3] = tested on: Hepa 1c1c7 cells; assay: Cytotoxicity against Hepa 1c1c7 cells; format: cell-based, mouse; details: read-out: IC50, concentration that inhibits 50% cell growth
[4] = target: K-Ras (Homo sapiens, UniProt P01116); assay: K-Ras inhibition assay in HT-29 cells; format: cell-based; details: for IC50: read-out: K-Ras inhibition IC50
[5] = tested on: quinone reductase; details: in vitro; cited from earlier work
[6] = in vitro; details: human
[7] = tested on: CCD-112CoN human normal colon cell line; details: cited from earlier work
[8] = tested on: mice; details: cited from earlier work; for LD50, acute toxicity to mice: ip administration
[9] = read-out: NF-κB p65 inhibition IC50, in HeLa cells

Sequence of p65 subunit of NF-κB (Q04206 whole entry): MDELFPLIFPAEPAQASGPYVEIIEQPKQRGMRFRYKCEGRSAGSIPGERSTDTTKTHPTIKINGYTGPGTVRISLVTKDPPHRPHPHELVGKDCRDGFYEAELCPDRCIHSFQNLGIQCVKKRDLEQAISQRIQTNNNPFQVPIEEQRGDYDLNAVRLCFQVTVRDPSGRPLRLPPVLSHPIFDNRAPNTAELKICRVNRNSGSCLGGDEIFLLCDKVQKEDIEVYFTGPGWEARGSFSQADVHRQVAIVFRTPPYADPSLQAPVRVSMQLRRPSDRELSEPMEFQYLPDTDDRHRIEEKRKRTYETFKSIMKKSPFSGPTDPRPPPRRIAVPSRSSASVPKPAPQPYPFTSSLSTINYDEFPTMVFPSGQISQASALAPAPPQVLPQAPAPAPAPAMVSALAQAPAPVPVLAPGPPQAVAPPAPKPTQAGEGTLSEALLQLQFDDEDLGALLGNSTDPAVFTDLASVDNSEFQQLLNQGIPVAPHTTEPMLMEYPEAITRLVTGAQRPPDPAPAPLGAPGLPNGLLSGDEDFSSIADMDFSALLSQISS

Molecule: COc1cc2c(c3c1OC(C)(C)C=C3)O[C@H]1COc3cc4c(cc3[C@@]1(O)C2=O)OCO4 [Compound 1, (5aS ,12bS)-5a,12b-dihydro-12b-hydroxy-15-methoxy-2,2-dimethyl-2H-[1, 3]dioxolo[4,5-g]pyrano[2,3-c:6,5-f ‘]bis[1]benzopyran-13(6H)-one]
- IC50 [1, 9]: > 10 µM
- CD, concentration required to double quinone reductase activity [2]: 19.8 µM
- IC50 ([3]; Hepa 1c1c7 cell line, 48 h): > 40 µM
- IC50 [4]: 9.4 µM

Molecule: COc1cc2c(c3c1OC(C)(C)C=C3)O[C@H]1COc3cc4c(cc3[C@H]1C2=O)OCO4 [Compound 2, (5aR, 12bR)-5a,12b-dihydro-15-methoxy-2,2-dimethyl-2H-[1, 3]dioxolo[4,5-g]pyrano[2,3-c:6,5-f'] bis[1]benzopyran-13(6H)-one]
- CI, chemopreventive index (IC50/CD) [2]: 8.1
- CD, concentration required to double quinone reductase activity [2]: 2.2 µM
- IC50 ([3]; Hepa 1c1c7 cell line, 48 h): 17.8 µM

Molecule: caeruleanone C
- Quinone reductase (QR) induction (in words) [5]: potently induce

Molecule: COc1cc2c(cc1-c1coc3c4c(c(OC)cc3c1=O)OC(C)(C)C=C4)OCO2 [Compound 8, ichthynone]
- IC50 [1]: > 10 µM
- IC50 [6]: > 10 µM
- CI, chemopreventive index (IC50/CD) [2]: 19.4
- CD, concentration required to double quinone reductase activity [2]: 1.8 µM
- IC50 ([3]; Mus musculus, Hepa-1c1c7, 48 h): 35 µM

Molecule: COc1cc2c(cc1OC)C1(O)C(=O)c3c(O)cc4c(c3OC1CO2)C=CC(C)(C)O4 (single isomer, unassigned; (+)) [Compound 11, (+)-3-hydroxy-α-toxicarol]
- CD, concentration required to double quinone reductase activity [2]: 6.6 µM
- IC50 ([3]; Hepa 1c1c7 cell line, 48 h): > 40 µM
- K-Ras inhibitory activity (in words) [4]: inactive

Molecule: C=C(C)[C@H]1Cc2c(ccc3c2O[C@@H]2COc4cc(OC)c(OC)cc4[C@@H]2C3=O)O1 [Compound 7, (−)-rotenone]
- IC50 [1]: > 10 µM
- Cytotoxicity against the CCD-112CoN human normal colon cell line (in words) [7]: lack of cytotoxicity
- IC50 at 3 days [6]: 300 nM
- LD50, acute toxicity to mice [8]: 2.5 mg/kg

Molecule: (−)-3-hydroxyrotenone [Compound 6]
- IC50 [1, 9]: 5.3 µM
- Cytotoxicity against the CCD-112CoN human normal colon cell line (in words) [7]: lack of cytotoxicity
- IC50 [4]: 3.1 µM
- Lethality to mice ([8]; dose of 5 mg/kg (ip)): lethal

Molecule: C[S@@+]([O-])CCCCN=C=S [L-sulforaphane, reference compound]
- CI, chemopreventive index (IC50/CD) [2]: 40.8
- CD, concentration required to double quinone reductase activity [2]: 0.51 µM
- IC50 ([3]; Mus musculus, Hepa-1c1c7, 48 h): 20.9 µM

Molecule: COC1=CC2=C(O[C@H]3COc4cc5c(cc4[C@@]3(O)C2=O)OCO5)C(CC=C(C)C)(CC=C(C)C)C1=O (relative stereo) [Compound 3, (6aS,12aS)-rel-6a,12a-dihydro-12a-hydroxy-10-methoxy-8,8-bis(3-methyl-2-buten-1-yl)-[1]benzopyrano[2,3-c]-1,3-dioxolo[4,5-g][1] benzopyran-9,12(6H, 8H)-dione]
- CI, chemopreventive index (IC50/CD) [2]: >16.8
- CD, concentration required to double quinone reductase activity [2]: 2.4 µM
- IC50 ([3]; Hepa 1c1c7 cell line, 48 h): > 40 µM

Molecule: COc1cc2c(cc1OC)[C@@H]1C(=O)c3ccc4c(c3O[C@@H]1CO2)C=CC(C)(C)O4 [deguelin, reference compound]
- LD50, acute toxicity to mice [8]: 5.0 mg/kg
